In ChEMBL document CHEMBL5608165, “Opportunities and perspectives of small molecular phosphodiesterase inhibitors in neurodegenerative diseases” (Eur J Med Chem, 2024):
pIC50, pKi: −log10 of the molar value. Values belong to the molecule of their own block, whether it stands above or below them.

Key:
[1] = target: 3',5'-cyclic-AMP phosphodiesterase 4B (Homo sapiens, UniProt Q07343); assay: Inhibition of human recombinant PDE4B1 using […] as substrate preincubated with compound for 15 mins followed by substrate addition and measured after 30 mins by spectrofluorimetric analysis
3',5'-cyclic-AMP phosphodiesterase 4B, sequence (Q07343 whole entry): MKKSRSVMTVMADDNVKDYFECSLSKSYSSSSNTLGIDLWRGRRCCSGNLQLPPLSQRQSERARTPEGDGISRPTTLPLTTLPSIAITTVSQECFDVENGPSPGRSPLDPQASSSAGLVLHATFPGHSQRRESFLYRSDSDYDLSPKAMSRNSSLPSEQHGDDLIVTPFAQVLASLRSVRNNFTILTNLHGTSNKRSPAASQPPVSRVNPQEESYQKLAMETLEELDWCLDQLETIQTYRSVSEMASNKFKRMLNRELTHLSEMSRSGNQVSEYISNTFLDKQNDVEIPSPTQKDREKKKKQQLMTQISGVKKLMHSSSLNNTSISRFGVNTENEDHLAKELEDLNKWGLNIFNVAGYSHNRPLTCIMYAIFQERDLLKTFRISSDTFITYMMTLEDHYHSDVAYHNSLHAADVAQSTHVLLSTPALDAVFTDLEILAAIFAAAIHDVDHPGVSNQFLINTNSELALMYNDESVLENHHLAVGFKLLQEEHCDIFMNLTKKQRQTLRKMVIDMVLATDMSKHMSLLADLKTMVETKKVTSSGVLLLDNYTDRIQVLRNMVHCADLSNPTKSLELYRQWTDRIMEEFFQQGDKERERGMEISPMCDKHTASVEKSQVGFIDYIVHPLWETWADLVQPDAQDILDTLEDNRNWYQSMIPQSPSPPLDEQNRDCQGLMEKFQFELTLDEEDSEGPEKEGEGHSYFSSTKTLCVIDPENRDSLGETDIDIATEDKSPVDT

[2] = target: Phosphodiesterase 4 (Homo sapiens, UniProt P27815+Q08499+Q07343+Q08493); assay: Inhibition of PDE4 (unknown origin); type: protein assay
[3] = target: Histone deacetylase 1 (Homo sapiens, UniProt Q13547); assay: Inhibition of HDAC1 (unknown origin)
[4] = target: T1, cGMP-specific 3',5'-cyclic phosphodiesterase (Homo sapiens, UniProt O76074); assay: Inhibition of PDE5A (unknown origin)
[5] = target: Acetylcholinesterase (Homo sapiens, UniProt P22303); assay: Inhibition of AChE (unknown origin) using acetylthiocholine iodide as substrate by Ellman's method
Acetylcholinesterase, sequence (P22303 whole entry): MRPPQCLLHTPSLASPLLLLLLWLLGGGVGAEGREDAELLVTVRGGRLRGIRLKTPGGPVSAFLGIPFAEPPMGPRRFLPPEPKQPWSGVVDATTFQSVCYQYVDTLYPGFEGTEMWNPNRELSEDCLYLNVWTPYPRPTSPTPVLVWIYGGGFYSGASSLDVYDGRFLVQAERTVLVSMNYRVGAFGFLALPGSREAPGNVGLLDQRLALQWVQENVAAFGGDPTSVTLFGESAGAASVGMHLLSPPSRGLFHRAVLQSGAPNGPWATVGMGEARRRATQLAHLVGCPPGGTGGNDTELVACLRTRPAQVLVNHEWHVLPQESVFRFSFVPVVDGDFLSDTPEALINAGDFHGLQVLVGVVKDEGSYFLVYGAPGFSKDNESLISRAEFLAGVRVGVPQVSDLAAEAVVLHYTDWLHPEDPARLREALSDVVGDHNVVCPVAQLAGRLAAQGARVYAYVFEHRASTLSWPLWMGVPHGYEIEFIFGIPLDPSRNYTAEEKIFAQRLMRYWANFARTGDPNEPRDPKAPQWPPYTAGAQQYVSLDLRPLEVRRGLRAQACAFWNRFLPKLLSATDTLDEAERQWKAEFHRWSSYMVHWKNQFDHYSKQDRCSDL

[6] = target: High affinity 3',5'-cyclic-AMP phosphodiesterase 7A (Homo sapiens, UniProt Q13946); assay: Inhibition of PDE7A (unknown origin)
High affinity 3',5'-cyclic-AMP phosphodiesterase 7A, sequence (Q13946 whole entry): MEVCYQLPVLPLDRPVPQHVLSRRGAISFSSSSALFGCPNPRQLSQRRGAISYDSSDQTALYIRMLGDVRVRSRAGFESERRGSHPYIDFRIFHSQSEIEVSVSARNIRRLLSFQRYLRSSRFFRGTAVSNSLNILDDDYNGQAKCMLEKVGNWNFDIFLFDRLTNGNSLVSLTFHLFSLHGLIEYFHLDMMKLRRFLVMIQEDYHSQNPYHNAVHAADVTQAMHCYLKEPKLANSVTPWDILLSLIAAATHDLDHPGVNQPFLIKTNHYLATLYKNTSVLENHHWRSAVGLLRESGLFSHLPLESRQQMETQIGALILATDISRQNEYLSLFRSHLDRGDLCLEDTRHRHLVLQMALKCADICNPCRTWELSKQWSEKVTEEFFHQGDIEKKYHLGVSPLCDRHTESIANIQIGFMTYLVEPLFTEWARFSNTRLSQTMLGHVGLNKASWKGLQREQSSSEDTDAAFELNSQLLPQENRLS

[7] = target: 3',5'-cyclic-AMP phosphodiesterase 7B (Homo sapiens, UniProt Q9NP56); assay: Inhibition of PDE7B (unknown origin)
[8] = target: T2, cAMP and cAMP-inhibited cGMP 3',5'-cyclic phosphodiesterase 10A (Homo sapiens, UniProt Q9Y233); assay: Inhibition of his-tagged recombinant human PDE10A catalytic domain extracted from Escherichia coli BL21(DE3) using [3H]-cAMP as substrate incubated for 10 mins by SPA assay
T2 sequence (Q9Y233 whole entry, the tested form may be a part): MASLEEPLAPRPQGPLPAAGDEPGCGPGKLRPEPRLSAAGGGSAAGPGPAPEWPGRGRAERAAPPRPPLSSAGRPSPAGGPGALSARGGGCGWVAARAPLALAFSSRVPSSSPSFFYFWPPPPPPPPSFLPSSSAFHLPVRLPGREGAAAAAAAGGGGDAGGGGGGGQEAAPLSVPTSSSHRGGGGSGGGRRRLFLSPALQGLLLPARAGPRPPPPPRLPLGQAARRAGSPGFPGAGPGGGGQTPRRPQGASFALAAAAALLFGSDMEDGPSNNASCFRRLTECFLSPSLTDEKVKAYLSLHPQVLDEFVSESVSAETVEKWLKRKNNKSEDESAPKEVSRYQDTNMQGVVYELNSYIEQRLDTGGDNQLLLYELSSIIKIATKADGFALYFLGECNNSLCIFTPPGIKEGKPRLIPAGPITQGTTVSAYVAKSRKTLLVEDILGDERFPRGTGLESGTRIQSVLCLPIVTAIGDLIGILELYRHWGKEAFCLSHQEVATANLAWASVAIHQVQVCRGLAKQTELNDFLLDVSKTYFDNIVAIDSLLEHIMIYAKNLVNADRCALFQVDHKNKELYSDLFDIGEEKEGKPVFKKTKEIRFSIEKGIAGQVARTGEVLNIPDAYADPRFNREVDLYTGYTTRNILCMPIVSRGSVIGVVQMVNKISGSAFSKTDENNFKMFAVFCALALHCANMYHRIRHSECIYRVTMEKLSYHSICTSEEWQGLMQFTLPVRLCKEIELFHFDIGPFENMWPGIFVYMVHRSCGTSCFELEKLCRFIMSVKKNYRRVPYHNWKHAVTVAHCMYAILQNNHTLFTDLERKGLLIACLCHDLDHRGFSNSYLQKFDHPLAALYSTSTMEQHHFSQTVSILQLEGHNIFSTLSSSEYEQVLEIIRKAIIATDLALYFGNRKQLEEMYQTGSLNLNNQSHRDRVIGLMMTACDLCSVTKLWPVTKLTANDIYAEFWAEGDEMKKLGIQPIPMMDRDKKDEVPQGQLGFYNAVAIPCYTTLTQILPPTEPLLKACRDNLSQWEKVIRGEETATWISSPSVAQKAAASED

[9] = target: T3, High affinity cGMP-specific 3',5'-cyclic phosphodiesterase 9A (Homo sapiens, UniProt O76083); assay: Inhibition of PDE9A (unknown origin)
T3 sequence (O76083 whole entry): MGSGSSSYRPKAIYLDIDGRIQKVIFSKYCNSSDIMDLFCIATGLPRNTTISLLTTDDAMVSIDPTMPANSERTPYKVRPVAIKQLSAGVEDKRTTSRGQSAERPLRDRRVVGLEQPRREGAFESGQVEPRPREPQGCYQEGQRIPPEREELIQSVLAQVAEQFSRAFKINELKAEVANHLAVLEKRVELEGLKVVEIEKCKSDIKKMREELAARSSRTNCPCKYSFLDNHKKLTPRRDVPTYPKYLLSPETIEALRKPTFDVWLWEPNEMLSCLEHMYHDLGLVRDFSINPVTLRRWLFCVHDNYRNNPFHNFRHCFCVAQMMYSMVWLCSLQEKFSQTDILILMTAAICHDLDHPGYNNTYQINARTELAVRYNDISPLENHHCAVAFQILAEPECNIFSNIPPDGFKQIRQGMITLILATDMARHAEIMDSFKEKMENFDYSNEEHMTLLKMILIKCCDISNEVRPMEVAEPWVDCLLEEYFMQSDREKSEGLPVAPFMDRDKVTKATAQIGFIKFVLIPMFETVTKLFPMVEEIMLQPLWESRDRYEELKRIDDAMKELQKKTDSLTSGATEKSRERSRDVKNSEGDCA

[10] = Inhibition of PDE1 (unknown origin); design: species or system Homo sapiens
[11] = target: T2, cAMP and cAMP-inhibited cGMP 3',5'-cyclic phosphodiesterase 10A; assay: Inhibition of PDE10A (unknown origin)
[12] = target: cGMP-dependent 3',5'-cyclic phosphodiesterase (Homo sapiens, UniProt O00408); assay: Inhibition of PDE2A (unknown origin) using 3H-cGMP as substrate
[13] = target: Dual specificity calcium/calmodulin-dependent 3',5'-cyclic nucleotide phosphodiesterase 1B (Homo sapiens, UniProt Q01064); assay: Inhibition of PDE1B (unknown origin)
Dual specificity calcium/calmodulin-dependent 3',5'-cyclic nucleotide phosphodiesterase 1B, sequence (Q01064 whole entry): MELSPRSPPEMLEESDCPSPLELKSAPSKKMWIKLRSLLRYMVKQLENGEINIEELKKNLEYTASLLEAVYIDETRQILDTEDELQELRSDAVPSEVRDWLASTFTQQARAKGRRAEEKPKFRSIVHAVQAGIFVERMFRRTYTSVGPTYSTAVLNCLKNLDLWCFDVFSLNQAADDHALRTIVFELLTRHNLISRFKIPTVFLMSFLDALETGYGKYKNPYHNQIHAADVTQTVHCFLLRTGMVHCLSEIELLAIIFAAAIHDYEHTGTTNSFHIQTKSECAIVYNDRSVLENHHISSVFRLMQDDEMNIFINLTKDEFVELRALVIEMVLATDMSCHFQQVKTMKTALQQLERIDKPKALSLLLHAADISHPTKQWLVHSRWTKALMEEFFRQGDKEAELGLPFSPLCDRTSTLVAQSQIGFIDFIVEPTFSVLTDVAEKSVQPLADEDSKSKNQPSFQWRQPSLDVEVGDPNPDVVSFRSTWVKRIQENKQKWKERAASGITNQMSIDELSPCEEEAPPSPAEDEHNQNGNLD

[14] = target: Dual specificity calcium/calmodulin-dependent 3',5'-cyclic nucleotide phosphodiesterase 1A (Homo sapiens, UniProt P54750); assay: Inhibition of human recombinant GST-tagged PDE1A
[15] = target: Dual specificity calcium/calmodulin-dependent 3',5'-cyclic nucleotide phosphodiesterase 1C (Homo sapiens, UniProt Q14123); assay: Inhibition of PDE1C (unknown origin)
Dual specificity calcium/calmodulin-dependent 3',5'-cyclic nucleotide phosphodiesterase 1C, sequence (Q14123 whole entry): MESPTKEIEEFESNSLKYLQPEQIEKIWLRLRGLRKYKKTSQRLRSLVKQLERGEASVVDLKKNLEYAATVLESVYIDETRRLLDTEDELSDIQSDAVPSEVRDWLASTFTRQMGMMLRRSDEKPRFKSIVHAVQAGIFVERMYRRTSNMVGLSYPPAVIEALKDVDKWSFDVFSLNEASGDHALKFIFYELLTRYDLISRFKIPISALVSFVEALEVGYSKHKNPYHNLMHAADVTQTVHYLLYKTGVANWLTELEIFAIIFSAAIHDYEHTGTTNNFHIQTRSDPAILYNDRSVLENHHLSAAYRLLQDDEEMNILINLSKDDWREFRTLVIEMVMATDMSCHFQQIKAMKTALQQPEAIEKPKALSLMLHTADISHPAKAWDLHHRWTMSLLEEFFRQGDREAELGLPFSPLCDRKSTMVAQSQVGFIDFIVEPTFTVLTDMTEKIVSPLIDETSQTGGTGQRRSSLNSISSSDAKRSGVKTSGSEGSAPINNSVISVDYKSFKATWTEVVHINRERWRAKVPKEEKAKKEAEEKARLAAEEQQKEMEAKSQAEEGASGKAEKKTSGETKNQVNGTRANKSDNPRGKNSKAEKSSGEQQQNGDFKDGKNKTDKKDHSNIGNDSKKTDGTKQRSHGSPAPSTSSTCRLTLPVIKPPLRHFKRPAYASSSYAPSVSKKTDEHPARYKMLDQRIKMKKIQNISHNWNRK

[16] = target: Glycogen synthase kinase-3 alpha (Homo sapiens, UniProt P49840); assay: Inhibition of GSK3alpha (unknown origin)
[17] = target: T3, High affinity cGMP-specific 3',5'-cyclic phosphodiesterase 9A; assay: Binding affinity to PDE9A (unknown origin) using [3H]cAMP as substrate assessed as inhibition constant incubated for 1 hr by […]
[18] = target: cGMP-inhibited 3',5'-cyclic phosphodiesterase 3B (Homo sapiens, UniProt Q13370); assay: Inhibition of human recombinant PDE3B using FAM-cyclic-3',5'-AMP as substrate incubated for 1 hrs by fluorescence polarization based assay
[19] = target: cGMP-inhibited 3',5'-cyclic phosphodiesterase 3A (Homo sapiens, UniProt Q14432); assay: Inhibition of PDE3A (unknown origin) using FAM-cAMP as substrate incubated for 45 mins by TR-FRET analysis
[20] = target: T1, cGMP-specific 3',5'-cyclic phosphodiesterase; assay: Inhibition of PDE5A1 (unknown origin) using [3H]-cGMP substrate incubated for 15 mins by liquid scintillation counting method

SMILES: O=C1[C@H]2Cc3c([nH]c4ccccc34)[C@@H](c3ccc4c(c3)OCO4)N2C(=O)CN1CCC1CCN(Cc2ccccc2)CC1
pIC50 [4]: 9.82
pIC50 [5]: 6.82

SMILES: CC(C)CCn1c2c(c3c(O)cc(O)cc31)CCn1c-2nc2ccccc2c1=O
pIC50 [4]: 7.44

SMILES: Cc1ccc([N+](=O)[O-])cc1S(=O)(=O)N(C)C
pIC50 [6]: 6.82
pIC50 [7]: 4.92

SMILES: O=C1[C@@H]2Cc3c([nH]c4ccccc34)[C@@H](c3ccc4c(c3)OCO4)N2C(=O)CN1CCC1CCN(Cc2ccccc2)CC1
pIC50 [4]: 8.79
pIC50 [5]: 5.79

SMILES: O=c1c(/C=C/c2nc3cc(Cl)ccc3n2-c2ccccc2)coc2ccc(F)cc12
pIC50 [8]: 8.02

SMILES: COc1ccc([C@@H]2c3[nH]c4ccccc4c3C[C@H]3C(=O)N(CCC4CCN(Cc5ccccc5)CC4)CC(=O)N23)cc1
pIC50 [4]: 8.49
pIC50 [5]: 5.49

SMILES: CCc1cc(C#N)cc2c(NCc3ccc(OC)c(Cl)c3)c(COCCF)cnc12
pIC50 [4]: 7.48

SMILES: COc1cc2ncnc(NCCc3c[nH]c4ccc(O)cc34)c2cc1OC
pIC50 [11]: 9.19

SMILES: CCCCn1c(=O)n(CC)c(=O)c2[nH]c(-c3cccc(C(C)C)c3)cc21
pIC50 [9]: 4.42

SMILES: COc1ccc(/C(CSc2nc3ccccc3c(=O)n2-c2ccccc2)=N\N)cc1
pIC50 [6]: 5.94

SMILES: COc1ccc2c(N(C)[C@]3(C)CCO[C@H]3C)ncnc2c1OC
pIC50 [13]: 7.86
pIC50 [14]: 7.24
pIC50 [15]: 7.33

SMILES: COc1ccc(CNc2c(COCCF)cnc3c(C4CC4)cc(C#N)cc23)cc1Cl
pIC50 [4]: 8.10

SMILES: Cn1c(OC[C@H]2CC[C@H](C(F)(F)F)CC2)nn2c(C3CCOCC3)ncc2c1=O
pIC50 [13]: 7.36
pIC50 [15]: 6.37

SMILES: CC(C)=CCc1c2c(c3occ(-c4ccc(OS(C)(=O)=O)c(OS(C)(=O)=O)c4)c(=O)c3c1O)CCC(C)(C)O2
pIC50 [9]: 8.28

SMILES: c1ccc(-c2n/c(=N/CCN3CCOCC3)sn2-c2ccccc2)cc1
pIC50 [16]: 6.06
pIC50 [6]: 5.80

SMILES: COC[C@H]1CC[C@H](Oc2nn3c(C4CCOCC4)ncc3c(=O)n2C)CC1
pIC50 [13]: 8.12
pIC50 [15]: 7.07

SMILES: Cn1c(=O)c2[nH]cnc2n(C)c1=O [THEOPHYLLINE ANHYDROUS]
pIC50 [10]: 6.55

Further lines, results first:

pIC50 [1]: 7.02
IC50 [2]: 30 nM
SMILES: O=C(Nc1ccccc1Cl)c1ccc(OC(F)F)c(OC2CCCC2)c1

pIC50 [1]: 6.84
IC50 [2]: 90 nM
SMILES: O=C(Nc1ccccc1Cl)c1ccc(OC(F)F)c(OCC2CC2)c1

pIC50 [3]: 6.68
SMILES: CCCc1nc(C)c2c(=O)[nH]c(-c3cc(CC4CC(C(=O)NO)C4)ccc3OCC)nn12 (stereo unspecified)

pIC50 [1]: 7.97
SMILES: C=CCn1cc(-c2nc3ccccc3nc2Cl)c2cc(OC)ccc21

pIC50 [3]: 6.74
SMILES: CCCc1nn(C)c2c(=O)[nH]c(-c3cc(Cc4ccc(C(=O)Nc5ccccc5N)cc4)ccc3OCC)nc12

pIC50 [9]: 7.24
SMILES: C[C@@H](NC(=O)/C=C/c1cccc(O)c1)c1nc2c(cnn2C2CCCC2)c(=O)[nH]1

pIC50 [10]: 7.40
SMILES: CC(C)(C)n1ncc2c(=O)n(Cc3cccc(F)c3)c(NCc3ccc(F)cn3)nc21

pIC50 [9]: 6.97
SMILES: C[C@@H]1CC(Cc2ccc(C(=O)NO)cc2)C[C@H]1c1nc2c(cnn2C2CCCC2)c(=O)[nH]1 (stereo partly specified)

pIC50 [12]: 6.24
SMILES: CC(c1cccc2ccccc12)n1cnc2c(=O)[nH]c(Cc3ccccc3)nc21 (stereo unspecified)

pIC50 [12]: 8.72
SMILES: O=C(NCCc1ccccc1)c1cnn2c(=O)cc(-c3ccccc3)[nH]c12

pKi [17]: 8.82
SMILES: CCCn1c(=O)c2[nH]c(-c3cccc(C(C)C)c3)cc2n(-c2ccc3c(c2)CNC3C(=O)OC)c1=O (stereo unspecified)

pIC50 [9]: 8.96
SMILES: O=C1NC(=O)/C(=C/c2ccc(OCCNc3nc4c(cnn4C4CCCC4)c(=O)[nH]3)c(F)c2)S1

pIC50 [18]: 7.30
pIC50 [19]: 7.57
SMILES: O=C1CCc2cc(OCCCCc3nnnn3C3CCCCC3)ccc2N1 [CILOSTAZOL]

pIC50 [20]: 7.96
SMILES: COc1cc2c(cc1OC)C(=O)C(CC1CCN(Cc3ccccc3)CC1)C2 (stereo unspecified) [DONEPEZIL]

pIC50 [10]: 7.30
SMILES: CN1C(=O)c2c(nn(Cc3ccc(-c4cccc(F)n4)cc3)c2Nc2ccccc2)N2C1=N[C@@H]1CCC[C@@H]12 [LENRISPODUN]

pIC50 [10]: 4.52
SMILES: CCOC(=O)C1=C[C@]2(CC)CCCN3CCc4c(n1c1ccccc41)[C@@H]32 [VINPOCETINE]
